Reference: article PMC8398766, “Do Small Molecules Activate the TrkB Receptor in the Same Manner as BDNF? Limitations of Published TrkB Low Molecular Agonists and Screening for Novel TrkB Orthosteric Agonists” (Pharmaceuticals, 2021)
Entries after “also recorded” stand apart in the source; their conditions may differ.

What was measured:
[1] = molecular target: T1, LXRβ (Homo sapiens, UniProt P55055); assay: BioPrint Profile Panel; assay type: binding; conditions: Agonist, Receptor, read-out: % of specific inhibition
T1 construct: purchased Eurofins Discovery (Cerep) BioPrint Profile Panel
Excerpt: (§1) The BioPrint® Profile Panel service offered by Eurofins Discovery (Poitiers, France) was chosen to perform selectivity analysis.

[2] = test system: MT3 (ML2); assay: BioPrint Profile Panel; assay type: binding; conditions: 10 μM; Agonist; Receptor
Excerpt: as §1

[3] = molecular target: T2, V1a (Homo sapiens, UniProt P37288); assay: BioPrint Profile Panel; assay type: binding; conditions: Agonist, Receptor, read-out: % of specific inhibition
T2 construct: purchased Eurofins Discovery (Cerep) BioPrint Profile Panel
T2 sequence (P37288 whole entry): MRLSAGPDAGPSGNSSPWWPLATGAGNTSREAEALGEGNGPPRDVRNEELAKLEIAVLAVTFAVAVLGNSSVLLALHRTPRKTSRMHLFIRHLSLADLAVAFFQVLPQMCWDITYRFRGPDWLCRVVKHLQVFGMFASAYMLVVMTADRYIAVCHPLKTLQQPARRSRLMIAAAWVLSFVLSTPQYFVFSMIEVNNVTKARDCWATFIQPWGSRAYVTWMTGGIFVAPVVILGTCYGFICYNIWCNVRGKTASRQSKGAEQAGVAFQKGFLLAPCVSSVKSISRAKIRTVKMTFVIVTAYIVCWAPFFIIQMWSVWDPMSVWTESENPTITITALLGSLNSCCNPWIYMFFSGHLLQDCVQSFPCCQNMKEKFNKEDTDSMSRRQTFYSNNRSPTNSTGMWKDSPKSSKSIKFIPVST
Excerpt: as §1

[4] = molecular target: T3, Y1 (Homo sapiens, UniProt P25929); assay: BioPrint Profile Panel; assay type: binding; conditions: Agonist, Receptor, read-out: % of specific inhibition
T3 construct: purchased Eurofins Discovery (Cerep) BioPrint Profile Panel
T3 sequence (P25929 whole entry): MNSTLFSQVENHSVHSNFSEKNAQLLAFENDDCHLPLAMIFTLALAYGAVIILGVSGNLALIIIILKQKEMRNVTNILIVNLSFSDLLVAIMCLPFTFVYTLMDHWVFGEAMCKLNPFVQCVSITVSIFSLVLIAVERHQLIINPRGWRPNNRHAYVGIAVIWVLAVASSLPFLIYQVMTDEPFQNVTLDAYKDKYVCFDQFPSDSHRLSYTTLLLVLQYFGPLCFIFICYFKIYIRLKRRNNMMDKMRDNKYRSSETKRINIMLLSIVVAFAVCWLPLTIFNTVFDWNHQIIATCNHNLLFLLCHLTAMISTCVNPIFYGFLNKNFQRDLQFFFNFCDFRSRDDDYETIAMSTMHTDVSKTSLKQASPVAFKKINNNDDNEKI
Excerpt: as §1

[5] = molecular target: T4, H4 (Homo sapiens, UniProt Q9H3N8); assay: BioPrint Profile Panel; assay type: binding; conditions: Agonist, Receptor, read-out: % of specific inhibition
T4 construct: purchased Eurofins Discovery (Cerep) BioPrint Profile Panel
T4 sequence (Q9H3N8 whole entry): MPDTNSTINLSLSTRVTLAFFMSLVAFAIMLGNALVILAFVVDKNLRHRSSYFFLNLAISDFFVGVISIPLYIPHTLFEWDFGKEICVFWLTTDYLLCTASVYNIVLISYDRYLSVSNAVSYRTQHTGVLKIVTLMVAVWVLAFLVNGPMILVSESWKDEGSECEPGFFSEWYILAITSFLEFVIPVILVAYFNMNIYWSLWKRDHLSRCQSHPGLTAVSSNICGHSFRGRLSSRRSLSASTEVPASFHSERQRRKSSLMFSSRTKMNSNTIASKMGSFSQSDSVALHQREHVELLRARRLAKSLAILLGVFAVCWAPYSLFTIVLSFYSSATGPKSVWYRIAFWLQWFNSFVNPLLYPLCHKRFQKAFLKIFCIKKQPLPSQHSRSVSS
Excerpt: as §1

[6] = test system: PCP; assay: BioPrint Profile Panel; assay type: binding; conditions: 10 μM; Antagonist; Ion Channel
Excerpt: as §1

[7] = molecular target: T5, 5-HT transporter (Homo sapiens, UniProt P31645); assay: BioPrint Profile Panel; assay type: binding; conditions: Antagonist, read-out: % of specific inhibition
T5 construct: purchased Eurofins Discovery (Cerep) BioPrint Profile Panel
Excerpt: as §1

[8] = molecular target: T6, H3 (Homo sapiens, UniProt Q9Y5N1); assay: BioPrint Profile Panel; assay type: binding; conditions: Agonist, Receptor, read-out: % of specific inhibition
T6 construct: purchased Eurofins Discovery (Cerep) BioPrint Profile Panel
T6 sequence (Q9Y5N1 whole entry): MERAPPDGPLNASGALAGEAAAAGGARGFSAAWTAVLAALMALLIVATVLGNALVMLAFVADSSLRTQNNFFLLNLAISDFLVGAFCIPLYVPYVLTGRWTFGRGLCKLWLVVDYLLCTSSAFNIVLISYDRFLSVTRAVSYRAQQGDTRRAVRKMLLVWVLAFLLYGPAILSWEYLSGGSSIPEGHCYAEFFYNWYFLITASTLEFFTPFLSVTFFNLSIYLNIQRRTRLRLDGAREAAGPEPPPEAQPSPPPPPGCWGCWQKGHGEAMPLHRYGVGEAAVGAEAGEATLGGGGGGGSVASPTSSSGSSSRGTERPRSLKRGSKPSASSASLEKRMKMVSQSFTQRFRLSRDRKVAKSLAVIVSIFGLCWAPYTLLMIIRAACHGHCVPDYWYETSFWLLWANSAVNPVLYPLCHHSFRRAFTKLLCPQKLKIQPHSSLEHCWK
Excerpt: as §1

[9] = molecular target: T7, A1 (Homo sapiens, UniProt P30542); assay: BioPrint Profile Panel; conditions: Agonist, Receptor, read-out: % Inhibition of Control Specific Binding
T7 construct: purchased Eurofins Discovery (Cerep) BioPrint Profile Panel
T7 sequence (P30542 whole entry): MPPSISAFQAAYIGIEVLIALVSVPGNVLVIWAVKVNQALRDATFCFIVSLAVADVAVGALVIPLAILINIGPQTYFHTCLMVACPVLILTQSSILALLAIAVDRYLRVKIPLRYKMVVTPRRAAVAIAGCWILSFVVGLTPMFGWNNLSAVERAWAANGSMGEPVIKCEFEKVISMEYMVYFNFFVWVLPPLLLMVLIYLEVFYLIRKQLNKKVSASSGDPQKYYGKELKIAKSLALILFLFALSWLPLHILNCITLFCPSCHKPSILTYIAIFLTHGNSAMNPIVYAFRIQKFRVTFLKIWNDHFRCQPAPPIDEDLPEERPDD
Excerpt: as §1

[10] = in vitro; conditions: mouse, microsomes
[11] = molecular target: T8, TrkB receptor (Rattus norvegicus, UniProt Q63604); assay: ELFI TrkB phosphorylation, orthosteric agonist mode, SN56 T48 cell line; assay type: cell-based; conditions: 0.125–100 μM, 15 min
T8 construct: host or cells: SN56 T48 cell line
T8 sequence (Q63604 32-821): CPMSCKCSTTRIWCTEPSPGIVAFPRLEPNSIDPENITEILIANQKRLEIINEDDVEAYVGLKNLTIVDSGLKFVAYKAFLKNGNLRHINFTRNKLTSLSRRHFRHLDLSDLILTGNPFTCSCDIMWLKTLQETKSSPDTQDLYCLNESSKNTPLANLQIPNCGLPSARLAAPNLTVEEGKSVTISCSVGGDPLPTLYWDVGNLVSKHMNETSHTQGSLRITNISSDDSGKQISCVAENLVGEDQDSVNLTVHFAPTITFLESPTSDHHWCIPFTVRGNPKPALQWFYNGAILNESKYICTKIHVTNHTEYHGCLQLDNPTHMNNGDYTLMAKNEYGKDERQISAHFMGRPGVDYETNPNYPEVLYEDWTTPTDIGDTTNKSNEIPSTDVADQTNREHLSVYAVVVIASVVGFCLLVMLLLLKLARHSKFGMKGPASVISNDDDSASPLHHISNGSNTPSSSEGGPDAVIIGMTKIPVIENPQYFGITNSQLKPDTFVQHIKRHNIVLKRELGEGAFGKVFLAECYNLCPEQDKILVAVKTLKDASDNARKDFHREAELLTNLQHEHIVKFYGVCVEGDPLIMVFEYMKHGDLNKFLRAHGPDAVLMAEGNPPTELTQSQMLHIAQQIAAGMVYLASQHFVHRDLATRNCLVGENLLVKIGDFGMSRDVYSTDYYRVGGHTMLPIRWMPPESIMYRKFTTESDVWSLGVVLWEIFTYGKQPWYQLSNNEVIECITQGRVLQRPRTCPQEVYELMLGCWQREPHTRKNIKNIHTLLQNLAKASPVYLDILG
Procedure: The SN56 T48 cell line with stable overexpression of the TrkB receptor was purchased from Emory University (Atlanta, GA, USA) and cultivated according to the protocol described in Jang et al., 2010 [12]. The cell lines were cultivated with the following reagents: DMEM High Glucose, fetal bovine serum (FBS), Penicillin-Streptomycin Solution 100×, and Trypsin-EDTA 1×; all were purchased from Biowest, and G418 was from ThermoFisher Scientific. For the ELFI experiments, cells were seeded (8000/well) on a PDL-treated 96-well plate (BioCoat™, Corning Inc., Corning, NY, USA) and 6-well plate (400,000/well) for lysate collection and immunoblot analysis.
In the orthosteric agonist mode experiments, starved cells (5 h) were treated with compounds (0.125–100 μM; volume, 100 μL/well) or BDNF (0.01–10 nM; volume, 100 μL/well) dissolved in culture medium. In the allosteric modulation mode experiments, starved cells (5 h) were treated with final compound concentrations of 3, 10, and 30 μM; volume, 50 μL/well) in the presence of a rising concentration of BDNF (final concentration in well, 0.15–5 nM; volume, 50 μL/well). Corresponding treatment with DMSO (v/v) was performed for a control. Cells were treated for 15 min in both the orthosteric and allosteric modulation mode experiments.
The analysis of TrkB receptor activation was performed using the ELFI method adapted from Boltayev et al. (2017) with some modifications. After compound treatment, experiments were stopped by fixing cells with 10% buffered formalin (Kolchem, Lodz, Poland) for 20 min (volume, 100 μL/well). Afterwards, cells were permeabilized with washing buffer (TBS+ 0.1% Tween20) for 15 min, and endogenous peroxidases were quenched by 20 min of incubation with 1% H2O2 dissolved in TBS (each solution: volume, 100 μL/well). Epitopes were blocked with 10% BSA (Biowest) dissolved in washing buffer for 2 h (volume, 100 μL/well) and incubated with anti-pTrkB (Tyr707) primary antibody (Cell Signaling Technology, Danvers, MA, USA) diluted in washing buffer (1:500; overnight at 4 °C; volume, 100 μL/well). After repeated washing, cells were incubated with HRP-linked anti-rabbit antibody (Cell Signaling Technology) for 2 h (1:1000; RT; volume, 100 μL/well) and washed. The cells were then incubated with 100 μL of ImmunoCruz™ Western Blotting Luminol (Santa Cruz Biotechnology, Dallas, TX, USA) for 1 min in the dark, and the signals were measured using a microplate luminometer (VICTOR Light 1420-060, PerkinElmer®, Waltham, MA, USA). For non-specific binding, cells were treated, with the exception of primary antibody.

[12] = in vitro; conditions: human, microsomes
[13] = molecular target: T9, acetylcholinesterase (Homo sapiens, UniProt P22303); assay: BioPrint Profile Panel; assay type: biochemical; conditions: Non-Kinase Enzyme, read-out: % of specific inhibition
T9 construct: purchased Eurofins Discovery (Cerep) BioPrint Profile Panel
T9 sequence (P22303 32-614): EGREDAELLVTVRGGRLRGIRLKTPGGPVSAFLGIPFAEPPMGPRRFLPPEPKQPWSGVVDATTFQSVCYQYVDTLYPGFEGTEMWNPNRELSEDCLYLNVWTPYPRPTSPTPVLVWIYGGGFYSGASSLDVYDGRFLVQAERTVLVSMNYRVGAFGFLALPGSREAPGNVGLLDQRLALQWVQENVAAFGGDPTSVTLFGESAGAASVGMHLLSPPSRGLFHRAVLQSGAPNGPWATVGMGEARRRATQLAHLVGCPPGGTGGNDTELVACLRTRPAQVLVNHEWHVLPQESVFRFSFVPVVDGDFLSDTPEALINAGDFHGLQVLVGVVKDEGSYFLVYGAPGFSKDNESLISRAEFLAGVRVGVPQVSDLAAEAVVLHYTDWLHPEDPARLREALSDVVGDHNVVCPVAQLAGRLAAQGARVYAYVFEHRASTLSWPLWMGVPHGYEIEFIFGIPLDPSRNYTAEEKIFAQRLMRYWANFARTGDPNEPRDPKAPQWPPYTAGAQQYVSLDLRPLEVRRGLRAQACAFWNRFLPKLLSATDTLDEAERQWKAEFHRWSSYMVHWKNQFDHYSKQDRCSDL
Excerpt: as §1

[14] = test system: ATPase (Na+/K+); assay: BioPrint Profile Panel; assay type: biochemical; conditions: 10 μM; Non-Kinase Enzyme
Excerpt: as §1

[15] = molecular target: T10, Fyn kinase (Homo sapiens, UniProt P06241); assay: BioPrint Profile Panel; assay type: biochemical; conditions: read-out: % of specific inhibition
T10 construct: purchased Eurofins Discovery (Cerep) BioPrint Profile Panel
T10 sequence (P06241 whole entry): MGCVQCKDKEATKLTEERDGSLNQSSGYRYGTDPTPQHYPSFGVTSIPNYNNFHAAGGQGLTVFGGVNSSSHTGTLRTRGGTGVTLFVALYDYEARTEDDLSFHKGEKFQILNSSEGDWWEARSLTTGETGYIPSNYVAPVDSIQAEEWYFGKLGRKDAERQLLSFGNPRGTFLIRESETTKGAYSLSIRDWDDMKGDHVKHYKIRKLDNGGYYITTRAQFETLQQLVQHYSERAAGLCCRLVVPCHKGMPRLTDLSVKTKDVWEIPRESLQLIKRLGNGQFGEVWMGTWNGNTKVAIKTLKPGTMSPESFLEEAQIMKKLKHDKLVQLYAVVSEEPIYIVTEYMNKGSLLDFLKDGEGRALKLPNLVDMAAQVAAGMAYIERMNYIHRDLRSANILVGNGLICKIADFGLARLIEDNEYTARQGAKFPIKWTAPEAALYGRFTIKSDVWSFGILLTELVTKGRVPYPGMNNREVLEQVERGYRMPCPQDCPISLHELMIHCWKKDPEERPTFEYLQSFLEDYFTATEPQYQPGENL
Excerpt: as §1

[16] = molecular target: T11, ERK2 (Homo sapiens, UniProt P28482); assay: BioPrint Profile Panel; assay type: biochemical; conditions: Kinase, read-out: % of specific inhibition
T11 construct: purchased Eurofins Discovery (Cerep) BioPrint Profile Panel
T11 sequence (P28482 whole entry): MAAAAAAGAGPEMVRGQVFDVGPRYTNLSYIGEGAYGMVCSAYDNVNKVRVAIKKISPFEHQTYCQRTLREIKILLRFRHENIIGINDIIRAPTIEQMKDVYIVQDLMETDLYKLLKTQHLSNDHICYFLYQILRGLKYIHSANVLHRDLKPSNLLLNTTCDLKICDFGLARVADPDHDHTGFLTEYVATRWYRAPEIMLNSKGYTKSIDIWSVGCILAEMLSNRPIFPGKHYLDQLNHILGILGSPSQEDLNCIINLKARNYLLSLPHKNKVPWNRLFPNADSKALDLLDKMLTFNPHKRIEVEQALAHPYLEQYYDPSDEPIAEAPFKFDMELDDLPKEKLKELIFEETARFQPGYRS
Excerpt: as §1

[17] = molecular target: T12, MMP-1 (Homo sapiens, UniProt P03956); assay: BioPrint Profile Panel; assay type: biochemical; conditions: Non-Kinase Enzyme, read-out: % of specific inhibition
T12 construct: purchased Eurofins Discovery (Cerep) BioPrint Profile Panel
Excerpt: as §1

[18] = molecular target: T13, BACE-1 (Homo sapiens, UniProt P56817); assay: BioPrint Profile Panel; assay type: biochemical; conditions: Non-Kinase Enzyme, read-out: % of specific inhibition
T13 construct: purchased Eurofins Discovery (Cerep) BioPrint Profile Panel
T13 sequence (P56817 46-501): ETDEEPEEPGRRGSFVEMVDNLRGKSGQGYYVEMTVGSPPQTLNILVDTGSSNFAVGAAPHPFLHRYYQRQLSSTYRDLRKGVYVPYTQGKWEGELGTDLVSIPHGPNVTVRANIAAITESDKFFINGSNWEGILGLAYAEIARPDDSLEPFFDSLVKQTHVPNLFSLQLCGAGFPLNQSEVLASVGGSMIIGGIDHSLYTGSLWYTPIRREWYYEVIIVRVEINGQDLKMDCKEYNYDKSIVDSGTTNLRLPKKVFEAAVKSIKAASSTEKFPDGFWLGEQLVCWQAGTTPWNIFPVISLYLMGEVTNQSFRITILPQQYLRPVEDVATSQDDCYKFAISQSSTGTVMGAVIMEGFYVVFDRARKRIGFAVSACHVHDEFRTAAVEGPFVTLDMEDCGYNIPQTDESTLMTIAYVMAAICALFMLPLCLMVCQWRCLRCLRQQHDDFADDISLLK
Excerpt: as §1

[19] = molecular target: T14, caspase-3 (Homo sapiens, UniProt P42574); assay: BioPrint Profile Panel; assay type: biochemical; conditions: Non-Kinase Enzyme, read-out: % of specific inhibition
T14 construct: purchased Eurofins Discovery (Cerep) BioPrint Profile Panel
T14 sequence (P42574 29-175 limits assumed): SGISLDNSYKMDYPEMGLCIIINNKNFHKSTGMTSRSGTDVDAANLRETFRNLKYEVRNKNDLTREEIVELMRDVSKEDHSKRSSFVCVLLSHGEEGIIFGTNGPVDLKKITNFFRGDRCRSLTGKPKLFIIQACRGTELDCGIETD
T14 sequence (P42574 176-277 limits assumed): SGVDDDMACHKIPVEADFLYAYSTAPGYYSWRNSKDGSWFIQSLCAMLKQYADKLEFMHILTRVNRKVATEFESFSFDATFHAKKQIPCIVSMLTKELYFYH
Excerpt: as §1

[20] = molecular target: T15, PDE3B (Homo sapiens, UniProt Q13370); assay: BioPrint Profile Panel; assay type: biochemical; conditions: Non-Kinase Enzyme, read-out: % of specific inhibition
T15 construct: purchased Eurofins Discovery (Cerep) BioPrint Profile Panel
Excerpt: as §1

[21] = molecular target: T16, exTrkB (Homo sapiens, UniProt Q16620); assay: Ligand-induced exTrkB dimerization assay (native electrophoresis); assay type: biochemical; conditions: exTrkB:ligand 1:1, non-reducing conditions
T16 construct: human TrkB receptor (exTrkB), residues 1−430, was cloned into the pCMV2 expression vector; made in house; host or cells: ExpiCHO-S cells
Procedure: The native exTrkB, BDNF, and tested compounds were separately diluted with PBS (pH 7.4) to a final concentration of 2.5 μM. Then, exTrkB, BDNF, or the tested compound were mixed (1:1 v/v) and incubated at 25 °C for 10 min, and 2X Sample Buffer (0.6 M Tris, 20% glycerol, 0.02% Bromophenol Blue, pH 6.8) was added to the samples. Afterwards, the samples were loaded into Stain-Free gels (10% Mini-PROTEAN® TGX Stain-Free™ Protein Gels; Bio-Rad, Hercules, CA, USA) and separated in non-reducing conditions using SDS-free electrophoresis buffer (192 mM glycine, 25 mM Tris; pH 8.3). Visualization of the protein bands was performed using a ChemiDoc MP Imaging System (Bio-Rad).

With `O=c1cc(-c2ccccc2)oc2c(O)c(O)ccc12` [7,8-DHF, 7,8-dihydroxyflavone] the inhibition at 10 µM [1] was 49%, the “% Inhibition of Control Specific Binding” value [2] was 86% and the inhibition at 10 µM [3] was -11%. For the same molecule, the inhibition at 10 µM [4] was 8%, the inhibition at 10 µM [5] was -4% and the “% of specific inhibition” value [6] was -3%. It also gave an inhibition at 10 µM [7] of -4%, an inhibition at 10 µM [8] of -6% and an inhibition at 10 µM [9] of 99%. The microsomal CLint at 1 μM [10] was 21.3 µL/min/mg, the “Orthosteric activity (induction of TrkB phosphorylation)” value [11] was “failed to show any activity; also recorded: does not occur” and the microsomal CLint at 1 μM [12] was 52.2 µL/min/mg. The inhibition at 10 µM [13] was 5%, the “% of specific inhibition” value [14] was -2% and the inhibition at 10 µM [15] was 21%. The inhibition at 10 µM [16] was -23%, the inhibition at 10 µM [17] was 10% and the inhibition at 10 µM [18] was 15%. The inhibition at 10 µM [19] was 1% and the inhibition at 10 µM [20] was 11%.

B1: BDNF: Brain-derived neurotrophic factor, endogenous TrkB receptor agonist (protein, UniProt P23560 19-247, looked up)
Neurotrophic factor BDNF …: APMKEANIRGQGGLAYPGVRTHGTLESVNGPKAGSRGLTSLADTFEHVIEELLDEDQKVRPNEENNKDADLYTSRVMLSSQVPLEPPLLFLLEEYKNYLDAANMSMRVRRHSDPARRGELSVCDSISEWVTAADKKTAVDMSGGTVTVLEKVPVSKGQLKQYFYETKCNPMGYTKEGCRGIDKRHWNSQCRTTQSYVRALTMDSKKRIGWRFIRIDTSCVCTLTIKRGR
In the case of B1, the “TrkB Dimerization” value [21] is reported as “YES”.
